# Reference: PMC12299903 (Pharmaceuticals, 2025)
# Entries after “also recorded” stand apart in the source; their conditions may differ. Where a SMILES comes first, the peptide text is derived from it. Where no end group is shown, it is not given here.
# Legend:
# trypsin [1] = assay: Proteolytic degradation by trypsin (HPLC); type: in vitro ADME; details: trypsin 1:50 (w/w), 100 µM peptide, 20 mM Tris-HCl pH 8.0, 37 °C, time points 1 min to 4 h; for time to complete degradation by trypsin: HPLC-UV; for time after which progressive degradation (cleavage fragment peaks) is observed with trypsin: HPLC-UV of filtered supernatant
# Method: Lunatin–AAAE and EAAA–lunatin and their nanoparticle-functionalized counterparts (NP-Lun-EN and NP-Lun-EC) were suspended in 20 mM Tris-HCl buffer (pH 8.0) at a final peptide concentration of 100 µM and exposed to enzymatic digestion with trypsin at 37 °C, using an enzyme-to-substrate ratio of 1:50 (w/w) in a final volume of 1000 µL. Incubation was performed using an AccuBlock™ Digital Dry Bath (Ciencor),. Aliquots of 200 µL were withdrawn at different time points (1 min, 5 min, 10 min, 30 min, 1 h, 2 h, 3 h, and 4 h), and enzymatic activity was quenched by adding 40 µL of 1 M HCl. Samples were centrifugated and supernatant filtered in whatman® alumina anodisc filter discs 0.02 μm pore size, previously injected in a high-performance liquid chromatography system (Varian® ProStar 315 system equipped with a UV detector), using an Agilent AdvanceBio Peptide Mapping column (4.6 × 150 mm), and 50 µL injection loop.
# [2] = Differential scanning calorimetry of model membranes; details: for Tm of LUVs: 3 mM DMPC:DMPG (3:1) LUVs, 10 mM Tris-HCl pH 7.5, pure LUVs 23.1, triplicate, ± 0.2 °C
# Method: The phase transition profile of 1,2-dimyristoyl-sn-glycero-3-phosphocholine and 1,2-dimyristoyl-sn-glycero-3-phosphocholine/1,2-dimyristoyl-sn-glycero-3-phosphoglycerol (DMPC:DMPG. 3:1, mol:mol) at 3 mM was investigated in the absence and presence of Lun-1, NP, NP-Lun-EN, and NP-Lun-EC at different concentrations (Table S1, using a VP-DSC® microcalorimeter (Malvern® Instruments, Malvern, UK). All mixtures of LUVs and peptide–LUVs were prepared immediately prior to the experiments. The samples were pre-degassed and tested against a 10 mM Tris-HCl buffer (pH 7.5) containing 50 mM NaCl in the reference cell. Buffer-only experiments were also performed in all cells for subsequent background subtraction. Each sample underwent three successive heating scans in the temperature range of 10–35 °C at a heating rate of 1.0 °C.min^−1. Data analyses were performed using Microcal Origin® DSC software version 5.0 (GE HealthCare-Microcal®, Amherst, MA, USA), which was employed to subtract the blank and determine the transition temperature (Tm) and transition enthalpy (DtransH) from the gel phase to the liquid crystalline phase.
# Zeta potential = type: physicochemical; details: 0.2 mg·mL^−1 in 10 mM Tris-HCl, pH 8.0, 100 mM NaCl; 25 °C; mean of triplicate ± SD
# Method: Zeta potential and Hydrodynamic Diameter measurements were performed at room temperature (or 25 °C) on a Zetasizer Nano instrument (Malvern® ZS model BI-900, Worcestershire, UK). A 700 µL Malvern® cuvette (model DTS1061) was used for the analysis. The measurements were conducted, utilizing monochromatic light scattering (10 mW Ne laser, λ = 632.4 nm), with the light intensity measured at a 90° angle. Zeta potential (z) were carried out at 0.2 mg·mL^−1 of NP, NP-OH, NP-NH2, NP-Lun-EN, and NP-Lun-EC dispersed in a 10 mM Tris-HCl buffer, pH 8.0, containing 100 mM NaCl.
# Staphylococcus aureus = assay: Bacterial cell death kinetics (time-kill); type: cell-based; details: S. aureus in MH broth, 10^5 CFU·mL^−1, tested at 0.5×, 2×, 4× MIC over 12 h, triplicate
# Method: Bacterial time-kill assays were performed in triplicate, following the methodology of ref. [43] with minor modifications. Staphylococcus aureus was cultured in Mueller–Hinton (MH) broth at an initial concentration of […] and exposed to free peptides and peptide-functionalized nanobiostructures at concentrations corresponding to 0.5×, 1×, 2×, and 4× the MIC (minimum inhibitory concentration). Samples were collected at defined time intervals: 0, 0.5, 1, 2, 4, 6, 8, 10, and 12 h. Cell viability was assessed using the microdrop method described by Romeiro (2001). Serial dilutions of the bacterial suspensions (10^−1, 10^−2, and 10^−3) were prepared, and 5 µL aliquots from each dilution were plated onto brain–heart infusion (BHI) agar. Plates were incubated for up to 12 h, after which colony counts were performed. The number of colony-forming units (UFC) was calculated by multiplying the colony count by the reciprocal of the dilution factor, and results were expressed as UFC·mL^−1. This approach provided quantitative data on the time–dependent bactericidal activity of both the free peptides and nanoparticle-conjugated formulations.
# [3] = system: Escherichia coli (ATCC25922); assay: Antibacterial assay, MIC (broth microdilution, resazurin); type: cell-based; details: Mueller-Hinton broth, CLSI M07-A9, 1:2 serial dilution from 128.5 μM, 37 °C 20 h, resazurin read-out, triplicate; conjugates dosed as peptide concentration
# Method: (§1) The peptide Lun-1 and the peptide-conjugated nanoparticles (Lun-EN and Lun-EC) were investigated against […] bacterial strains—Pseudomonas aeruginosa, Staphylococcus aureus, Acinetobacter, Escherichia coli, and Streptococcus agalactiae, all from American Type Culture Collection (Manassas, VA, USA). Details can be found in the SM. […]
# (§2) phase at 35 °C and subsequently transferred to Mueller-Hinton broth according to the guidelines established by the M07 -A9 CLSI. Methods for the dilution antimicrobial susceptibility tests for b acteria that grow aerobically were from the Approved Standard—Ninth Edition. CLSI document M07 -A9. Wayne, PA: Clinical and Laboratory Standards Institute; 2012. Bacterial suspensions were adjusted to the turbidity equivalent to 0.5 McFarland standard ([…]), by spectrophotometric measurement at 625 nm (Bel Photonics S2000 UV, São Paulo, Brazil).
# (§3) The suspension was then diluted 1:20, and 50 μL aliquots were distributed into 96-well flat-bottom microplates (Nümbrecht, Germany).
# (§4) Chloramphenicol (30 μg·mL⁻¹; 92.8 μM) was used as standard drug and served as positive control for growth bacterial inhibition. Wells containing 50 μL of bacterial inoculum and 50 μL of sterile culture medium were used as negative controls. Free peptides were tested at a maximum concentration of 128.5 μM and diluted via serial dilution (1:2) up to seven times in Mueller–Hinton broth. For the nanoparticle– peptide conjugations concentration s were adjusted according to the degree of functionalization to ensure accurate dosing of the active peptide component.
# (§5) Plates were incubated at 37 °C for 20 hours. After incubation, 30 μL of a 0.01% (w/v) resazurin solution (10-oxido -7 -oxophenoxazin-10 -ium -3 -olate; Sigma -Aldrich, St. Louis, MO, USA) was added to each well. Plates were protected from light and incubated for an additional 4 hours to allow colorimetric development. The tests whose bacteria did not develop a pink color after incubation (maintaining the blue coloration) were […]
# [4] = system: Acinetobacter (ATCC17978); assay: as above; type: cell-based; details: Mueller-Hinton broth, CLSI M07-A9, 1:2 serial dilution from 128.5 μM, 37 °C 20 h, resazurin read-out, triplicate; conjugates dosed as peptide concentration
# Method: as §1, §2, §3, §4, §5
# [5] = system: Pseudomonas aeruginosa (ATCC27853); assay: as above; type: cell-based; details: Mueller-Hinton broth, CLSI M07-A9, 1:2 serial dilution from 128.5 μM, 37 °C 20 h, resazurin read-out, triplicate; conjugates dosed as peptide concentration
# Method: as §1, §2, §3, §4, §5
# [6] = system: Staphylococcus aureus (ATCC29213); assay: as above; type: cell-based; details: Mueller-Hinton broth, CLSI M07-A9, 1:2 serial dilution from 128.5 μM, 37 °C 20 h, resazurin read-out, triplicate; conjugates dosed as peptide concentration
# Method: as §1, §2, §3, §4, §5
# [7] = system: Streptococcus agalactiae (ATCC 29313); assay: as above; type: cell-based; details: Mueller-Hinton broth, CLSI M07-A9, 1:2 serial dilution from 128.5 μM, 37 °C 20 h, resazurin read-out, triplicate; conjugates dosed as peptide concentration
# Method: as §1, §2, §3, §4, §5
# [8] = Circular dichroism, secondary structure content; type: physicochemical; details: 10 mM Tris-HCl, 100 mM NaCl, pH 8.5, 25 µM peptide, 25 °C; for a-helical percentage (CD deconvolution) / β-sheet percentage (CD deconvolution): in buffer, CDpro; for α-helix content (CD deconvolution): in presence of 200 µM POPC:POPG (3:1) LUVs
# Method: Circular dichroism spectra were recorded using a JASCO J-815 spectrometer (Easton, MD, USA) equipped with a Peltier Jasco model PTC-423 L temperature control system. Spectra were obtained using a quartz cuvette with a 1 cm optical path at a temperature of 25 °C, covering a wavelength range from 190 to 260 nm with eight consecutive scans per sample. The scan speed was set at 100 nm/min and the response time was 4 s. The bandwidth was 1 nm, and ellipticity readings were taken every 0.2 nm. The Lun-1 (25 µM), NP (0.155 mg·mL^−1), NP-Lun-EN (0.17 mg·mL^−1–25 µM of peptide concentration), and NP-Lun-EC (0.18 mg·mL^−1–25 µM of peptide concentration) samples were (corresponding to 25 µM of peptide in NP-Lun-EN and NP-Lun-EC) suspended in 10 mM Tris-HCl buffer solution at pH 8.5 containing 100 mM NaCl or in 200 µM POPC:POPG (3:1, mol:mol) LUVs suspended in the same buffer solution. Data processing and deconvolution calculations to obtain the contents of secondary structures were carried out using the CDpro® program.
# trypsin [9] = assay: trypsin in 20 mM Tris-HCl buffer (pH 8.0); details: 37 °C, up to 4 h
molecule,measurement,setting,value
CC[C@H](C)[C@H](NC(=O)[C@H](Cc1ccccc1)NC(=O)[C@H](C)NC(=O)[C@H](C)NC(=O)[C@H](C)NC(=O)[C@@H](N)CCC(=O)O)C(=O)NCC(=O)NCC(=O)N[C@@H](CC(C)C)C(=O)N[C@@H](CC(C)C)C(=O)N[C@@H](CCCCN)C(=O)N[C@H](C(=O)N[C@@H](CC(C)C)C(=O)N[C@H](C(=O)N[C@@H](CO)C(=O)N[C@@H](Cc1ccccc1)C(=O)N[C@@H](Cc1ccccc1)C(N)=O)[C@@H](C)O)[C@@H](C)O [Lun-EN] (H-EAAAFIGGLLKTLTSFF-NH2),time to complete degradation by trypsin,trypsin [1],10 min
NP-NtermEAAA-Lun-1 [NP-Lun-EN],Tm of LUVs,[2]; 10 µM peptide,22.9 °C
same,Tm of LUVs,[2]; 25 µM peptide,22.9 °C
same,Tm of LUVs,[2]; 50 µM peptide,22.9 °C
same,Tm of LUVs,[2]; 100 µM peptide,21.9 °C
same,ζ-potential,Zeta potential,+6.7 ± 0.9 mV
same,concentrations giving sustained reduction in viable cells without regrowth,Staphylococcus aureus,2 × MIC and 4 × MIC
same,MIC,[3],128.5 µmol/L
same,MIC,[4],did not exhibit activity
same,MIC,[5],did not exhibit activity
same,MIC,[6],64.2 µmol/L
same,MIC,[7],128.5 µmol/L
same,a-helical percentage (CD deconvolution),[8],35%
same,β-sheet percentage (CD deconvolution),[8],45%
same,α-helix content (CD deconvolution),[8],40%
same,time after which progressive degradation (cleavage fragment peaks) is observed with trypsin,trypsin [1],2 h
EAAAFIGGLLKTLTSFF-NH2 [Lun-EN],fragment found,trypsin [9],"TLTSFF, 1 min; also recorded: EAAAFIGGLLK, 1 min"
FIGGLLKTLTSFFAAAE-NH2 [Lun-EC],fragment found,trypsin [9],"FIGGLLK, 1 min; also recorded: TLTSFFAAAE, 1 min"
FIGGLLKTLTSFFAAAE-NH2 [NP-Lun-EC],fragment found,trypsin [9],"FIGGLLK, 2 h"
EAAAFIGGLLKTLTSFF-NH2 [NP-Lun-EN],fragment found,trypsin [9],"TLTSFF, 2 h"
CC[C@H](C)[C@H](NC(=O)[C@@H](N)Cc1ccccc1)C(=O)NCC(=O)NCC(=O)N[C@@H](CC(C)C)C(=O)N[C@@H](CC(C)C)C(=O)N[C@@H](CCCCN)C(=O)N[C@H](C(=O)N[C@@H](CC(C)C)C(=O)N[C@H](C(=O)N[C@@H](CO)C(=O)N[C@@H](Cc1ccccc1)C(=O)N[C@@H](Cc1ccccc1)C(=O)N[C@@H](C)C(=O)N[C@@H](C)C(=O)N[C@@H](C)C(=O)N[C@@H](CCC(=O)O)C(N)=O)[C@@H](C)O)[C@@H](C)O [Lun-EC] (H-FIGGLLKTLTSFFAAAE-NH2),time to complete degradation by trypsin,trypsin [1],10 min
Lun-1-AAAECterm-NP [NP-Lun-EC],Tm of LUVs,[2]; 10 µM peptide,22.7 °C
same,Tm of LUVs,[2]; 25 µM peptide,22.0/22.0 °C
same,Tm of LUVs,[2]; 50 µM peptide,21.1 °C
same,Tm of LUVs,[2]; 100 µM peptide,19.8 °C
same,lowering of transition temperature (DTm),"[2]; DMPC:DMPG (3:1) LUVs, versus pure LUVs",3.3 °C
same,ζ-potential,Zeta potential,+5.8 ± 0.8 mV
same,MIC,[3],48.0 µmol/L
same,MIC,[4],40.0 µmol/L
same,MIC,[5],32.1 µmol/L
same,MIC,[6],16.0 µmol/L
same,MIC,[7],16.0 µmol/L
same,a-helical percentage (CD deconvolution),[8],30%
same,β-sheet percentage (CD deconvolution),[8],40%
same,α-helix content (CD deconvolution),[8],55%
same,time after which progressive degradation (cleavage fragment peaks) is observed with trypsin,trypsin [1],2 h
"CC[C@H](C)[C@H](NC(=O)[C@@H](N)Cc1ccccc1)C(=O)NCC(=O)NCC(=O)N[C@@H](CC(C)C)C(=O)N[C@@H](CC(C)C)C(=O)N[C@@H](CCCCN)C(=O)N[C@H](C(=O)N[C@@H](CC(C)C)C(=O)N[C@H](C(=O)N[C@@H](CO)C(=O)N[C@@H](Cc1ccccc1)C(=O)N[C@@H](Cc1ccccc1)C(N)=O)[C@@H](C)O)[C@@H](C)O [Lun-1, lunatin-1] (H-FIGGLLKTLTSFF-NH2)",MIC,[3],64.2 µmol/L
same,MIC,[4],32.1 µmol/L
same,MIC,[5],32.1 µmol/L
same,MIC,[6],8.0 µmol/L
same,MIC,[7],16.0 µmol/L
